# Legend:
# [1] = tested on: Panc-2; experiment: MTT cell viability assay Panc-2; format: cell-based; details: 48 h
# Method: (§1) Cell viability was evaluated using an MTT colorimetric assay. Cells were seeded (10^5 cells/mL) in 96-well plates and allowed to grow overnight at 37 ℃ with 5% CO2 in a cell-culture incubator. On the following day, the cells were treated with small molecules at different concentrations (0.2–10 micro-molar) or vehicle (DMSO). Cells were then further incubated for 48 h.
# [2] = target: T1, PI-3-K δ (Homo sapiens, UniProt O00329); experiment: Cell-free kinase assay PI-3-K δ; format: biochemical; details: Km ATP
# T1 construct: purchased Promega Corporation V1690
# T1 sequence (O00329 whole entry): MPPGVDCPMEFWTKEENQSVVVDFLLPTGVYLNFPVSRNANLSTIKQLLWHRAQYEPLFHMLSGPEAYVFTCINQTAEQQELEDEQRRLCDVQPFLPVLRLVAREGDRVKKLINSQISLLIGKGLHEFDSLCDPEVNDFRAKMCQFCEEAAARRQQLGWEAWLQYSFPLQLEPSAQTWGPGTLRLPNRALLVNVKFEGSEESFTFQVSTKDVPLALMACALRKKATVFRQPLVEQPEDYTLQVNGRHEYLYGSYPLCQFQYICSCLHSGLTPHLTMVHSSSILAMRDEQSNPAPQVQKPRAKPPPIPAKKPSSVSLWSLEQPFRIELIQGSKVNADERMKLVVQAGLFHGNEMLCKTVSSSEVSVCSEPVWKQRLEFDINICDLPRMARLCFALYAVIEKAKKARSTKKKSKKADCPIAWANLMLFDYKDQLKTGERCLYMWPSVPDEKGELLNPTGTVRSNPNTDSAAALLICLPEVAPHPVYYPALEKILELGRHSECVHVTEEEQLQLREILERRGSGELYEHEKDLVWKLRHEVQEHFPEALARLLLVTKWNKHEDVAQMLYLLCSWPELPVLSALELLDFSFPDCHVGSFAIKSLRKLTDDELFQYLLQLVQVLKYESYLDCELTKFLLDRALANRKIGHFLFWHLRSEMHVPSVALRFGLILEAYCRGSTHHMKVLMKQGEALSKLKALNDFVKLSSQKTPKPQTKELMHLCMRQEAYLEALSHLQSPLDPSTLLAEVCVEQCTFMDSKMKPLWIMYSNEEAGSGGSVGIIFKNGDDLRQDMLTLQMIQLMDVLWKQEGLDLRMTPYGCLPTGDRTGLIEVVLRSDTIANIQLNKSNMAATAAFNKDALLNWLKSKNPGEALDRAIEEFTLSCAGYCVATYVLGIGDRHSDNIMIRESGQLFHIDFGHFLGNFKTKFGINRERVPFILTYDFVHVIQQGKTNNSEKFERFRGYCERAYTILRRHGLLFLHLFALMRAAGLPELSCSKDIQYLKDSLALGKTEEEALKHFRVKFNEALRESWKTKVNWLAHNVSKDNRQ
# T1 sequence (P27986 whole entry partner): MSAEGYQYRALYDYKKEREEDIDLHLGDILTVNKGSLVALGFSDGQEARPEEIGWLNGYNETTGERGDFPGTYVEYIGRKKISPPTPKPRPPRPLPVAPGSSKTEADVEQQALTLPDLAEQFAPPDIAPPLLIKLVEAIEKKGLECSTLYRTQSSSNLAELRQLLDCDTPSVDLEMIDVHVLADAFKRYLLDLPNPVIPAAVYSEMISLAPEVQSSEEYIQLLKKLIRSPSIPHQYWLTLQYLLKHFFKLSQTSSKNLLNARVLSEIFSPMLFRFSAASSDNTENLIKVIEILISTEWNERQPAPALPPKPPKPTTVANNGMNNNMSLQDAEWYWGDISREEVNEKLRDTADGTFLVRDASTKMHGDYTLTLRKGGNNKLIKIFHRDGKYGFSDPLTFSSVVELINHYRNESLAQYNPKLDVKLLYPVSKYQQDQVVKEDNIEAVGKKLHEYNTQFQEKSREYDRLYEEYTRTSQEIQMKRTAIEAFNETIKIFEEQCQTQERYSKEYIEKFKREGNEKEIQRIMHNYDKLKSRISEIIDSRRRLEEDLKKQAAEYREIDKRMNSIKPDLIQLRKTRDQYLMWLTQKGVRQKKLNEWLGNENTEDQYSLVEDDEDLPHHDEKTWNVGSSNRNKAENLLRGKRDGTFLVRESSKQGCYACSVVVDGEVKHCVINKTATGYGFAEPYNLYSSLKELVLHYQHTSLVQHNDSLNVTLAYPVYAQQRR
# Method: (§2) The cell-free kinase assays of small molecules were determined by following the manufacturer-recommended protocols. Different concentrations in triplicate were used to determine the IC50 value of the hit molecules (active molecules). For data analysis, GraphPad Prism V9.5 Software and a sigmoidal dose–response (variable slope) equation were used. Each value represents an average of three replicates per concentration.
# [3] = Acute dermal toxicity (OECD 402) in Wistar rats
# [4] = target: T2, PI-3-K β (Homo sapiens, UniProt P42338); experiment: Cell-free kinase assay PI-3-K β; format: biochemical; details: Km ATP
# T2 construct: purchased Promega Corporation V1690
# T2 sequence (P42338 whole entry): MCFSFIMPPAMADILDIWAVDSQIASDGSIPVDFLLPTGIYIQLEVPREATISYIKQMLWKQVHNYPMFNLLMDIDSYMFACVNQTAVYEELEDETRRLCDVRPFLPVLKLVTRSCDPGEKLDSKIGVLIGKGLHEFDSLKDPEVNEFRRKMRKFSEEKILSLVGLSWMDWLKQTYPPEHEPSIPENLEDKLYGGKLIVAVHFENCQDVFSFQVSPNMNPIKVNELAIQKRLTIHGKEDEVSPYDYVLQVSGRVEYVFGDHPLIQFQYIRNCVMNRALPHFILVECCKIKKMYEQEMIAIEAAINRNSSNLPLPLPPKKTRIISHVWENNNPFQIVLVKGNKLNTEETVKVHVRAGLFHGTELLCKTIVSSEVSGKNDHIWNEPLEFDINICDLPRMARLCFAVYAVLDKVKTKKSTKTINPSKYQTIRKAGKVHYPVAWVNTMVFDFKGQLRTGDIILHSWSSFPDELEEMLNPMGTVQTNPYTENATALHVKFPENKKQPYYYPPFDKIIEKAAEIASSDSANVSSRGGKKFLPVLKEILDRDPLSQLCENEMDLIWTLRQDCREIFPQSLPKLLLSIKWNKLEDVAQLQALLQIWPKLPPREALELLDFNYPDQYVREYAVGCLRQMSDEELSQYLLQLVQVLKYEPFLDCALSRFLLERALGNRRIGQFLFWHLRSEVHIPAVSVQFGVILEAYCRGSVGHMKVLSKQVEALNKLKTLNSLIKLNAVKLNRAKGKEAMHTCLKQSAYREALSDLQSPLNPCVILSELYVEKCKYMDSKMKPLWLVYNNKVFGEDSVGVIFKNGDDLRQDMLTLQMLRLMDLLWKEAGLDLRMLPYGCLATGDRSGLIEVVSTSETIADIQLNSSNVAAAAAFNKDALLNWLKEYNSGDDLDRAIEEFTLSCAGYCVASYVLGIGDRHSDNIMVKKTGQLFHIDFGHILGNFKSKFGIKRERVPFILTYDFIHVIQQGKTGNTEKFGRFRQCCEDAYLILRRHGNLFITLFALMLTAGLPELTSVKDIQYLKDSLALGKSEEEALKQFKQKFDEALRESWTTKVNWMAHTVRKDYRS
# T2 sequence (P27986 whole entry partner): as the sequence (P27986 whole entry partner) above
# Method: as §2
# [5] = tested on: human hair follicles; experiment: Human hair follicle organ culture ex-vivo; details: 20 days culture, vs vehicle and untreated follicles
# Method: Hair follicles were collected from three single donors of androgenetic alopecia undergoing hair transplant surgery at the Department of Dermatology, All India Institute of Medical Sciences, New Delhi, India. All experimental procedures were approved by the Institutional Ethics Committee […] of AIIMS, New Delhi (IEC approval No: 550/01.09.2023). Donors were above 18 years of age. Isolated hair follicles were cultured as per the previously described method of Philpott et al.. Immediately after isolation, follicles were placed in 24 well plates under sterile conditions into ice-cold Williams’ medium E (Sigma) with the different concentrations of MJ04 for 20 days. Half media was replaced with fresh media every 3rd day for 20 days. Basal length, i.e., length on the day of starting culture and post treatment was measured. Photographs were taken with a Nikon digital camera.
# [6] = target: T3, JAK3 (Homo sapiens, UniProt P52333); experiment: Cell-free kinase assay JAK3; format: biochemical
# T3 construct: purchased Promega Corporation V3701
# T3 sequence (P52333 1-1124): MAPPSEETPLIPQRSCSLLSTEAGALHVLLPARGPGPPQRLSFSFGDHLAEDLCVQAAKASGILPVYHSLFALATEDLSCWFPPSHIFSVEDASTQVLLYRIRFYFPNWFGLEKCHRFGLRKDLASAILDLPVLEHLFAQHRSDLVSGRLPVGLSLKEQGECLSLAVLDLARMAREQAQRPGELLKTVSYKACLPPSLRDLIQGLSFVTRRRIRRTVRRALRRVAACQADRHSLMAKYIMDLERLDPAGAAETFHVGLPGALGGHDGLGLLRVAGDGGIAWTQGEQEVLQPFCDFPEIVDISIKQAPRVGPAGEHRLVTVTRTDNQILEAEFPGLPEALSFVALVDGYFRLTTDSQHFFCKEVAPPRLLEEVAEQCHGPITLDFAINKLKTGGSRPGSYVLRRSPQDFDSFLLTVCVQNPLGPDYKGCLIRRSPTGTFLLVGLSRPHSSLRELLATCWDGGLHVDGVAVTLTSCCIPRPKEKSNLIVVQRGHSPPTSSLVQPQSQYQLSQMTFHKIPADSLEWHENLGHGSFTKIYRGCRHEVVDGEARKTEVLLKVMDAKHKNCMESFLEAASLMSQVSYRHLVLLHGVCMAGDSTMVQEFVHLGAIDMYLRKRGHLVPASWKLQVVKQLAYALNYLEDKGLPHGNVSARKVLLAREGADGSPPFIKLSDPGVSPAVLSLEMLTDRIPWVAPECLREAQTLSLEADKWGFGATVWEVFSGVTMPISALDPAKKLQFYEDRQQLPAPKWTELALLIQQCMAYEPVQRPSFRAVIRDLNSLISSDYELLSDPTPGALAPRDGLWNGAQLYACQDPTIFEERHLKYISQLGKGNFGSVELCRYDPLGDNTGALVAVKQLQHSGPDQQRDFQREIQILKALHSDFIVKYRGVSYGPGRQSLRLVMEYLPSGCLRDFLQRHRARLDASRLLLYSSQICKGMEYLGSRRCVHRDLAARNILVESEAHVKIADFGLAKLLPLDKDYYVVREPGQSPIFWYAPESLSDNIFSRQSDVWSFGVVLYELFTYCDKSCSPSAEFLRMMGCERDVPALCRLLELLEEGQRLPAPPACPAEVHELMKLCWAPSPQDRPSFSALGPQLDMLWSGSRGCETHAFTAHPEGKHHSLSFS
# Method: as §2
# [7] = target: T4, PI-3-K γ (Homo sapiens, UniProt P48736); experiment: Cell-free kinase assay PI-3-K γ; format: biochemical
# T4 construct: purchased Promega Corporation V1690
# T4 sequence (P48736 whole entry): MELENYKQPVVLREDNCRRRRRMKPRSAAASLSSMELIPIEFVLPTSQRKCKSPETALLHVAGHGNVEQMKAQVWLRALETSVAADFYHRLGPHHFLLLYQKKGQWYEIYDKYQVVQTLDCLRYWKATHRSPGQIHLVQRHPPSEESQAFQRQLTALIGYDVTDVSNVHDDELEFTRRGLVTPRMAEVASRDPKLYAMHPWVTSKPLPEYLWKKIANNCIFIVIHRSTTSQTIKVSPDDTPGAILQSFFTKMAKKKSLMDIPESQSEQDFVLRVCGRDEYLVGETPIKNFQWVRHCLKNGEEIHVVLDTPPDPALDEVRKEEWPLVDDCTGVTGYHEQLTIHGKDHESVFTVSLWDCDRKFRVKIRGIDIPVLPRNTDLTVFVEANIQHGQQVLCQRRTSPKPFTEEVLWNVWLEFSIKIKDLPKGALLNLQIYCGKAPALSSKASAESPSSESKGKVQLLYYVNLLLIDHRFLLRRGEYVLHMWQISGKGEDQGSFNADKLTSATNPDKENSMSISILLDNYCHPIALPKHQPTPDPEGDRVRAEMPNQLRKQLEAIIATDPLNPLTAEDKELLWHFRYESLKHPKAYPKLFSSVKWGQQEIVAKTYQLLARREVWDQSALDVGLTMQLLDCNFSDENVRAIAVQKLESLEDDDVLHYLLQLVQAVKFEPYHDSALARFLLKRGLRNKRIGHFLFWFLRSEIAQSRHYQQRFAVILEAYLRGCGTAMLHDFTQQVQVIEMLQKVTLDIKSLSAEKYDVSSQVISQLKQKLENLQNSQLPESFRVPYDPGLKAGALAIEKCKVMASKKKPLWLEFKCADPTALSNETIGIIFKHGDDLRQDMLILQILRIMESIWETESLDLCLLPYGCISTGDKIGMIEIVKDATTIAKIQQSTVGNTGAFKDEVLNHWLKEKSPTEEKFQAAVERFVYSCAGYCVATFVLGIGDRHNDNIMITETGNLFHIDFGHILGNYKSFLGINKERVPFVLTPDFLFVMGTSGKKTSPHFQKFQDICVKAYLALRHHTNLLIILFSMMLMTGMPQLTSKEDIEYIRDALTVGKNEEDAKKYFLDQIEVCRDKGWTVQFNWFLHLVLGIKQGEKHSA
# Method: as §2
# [8] = tested on: Murine macrophages (J774a.1); experiment: Cytokines from LPS primed macrophages (ELISA); format: cell-based; details: dose-dependent
# Method: The supernatant was collected and stored at −20 ℃ for further cytokines analysis. The level of cytokines (TNF-α, IL1-β, and IL-6) was analyzed by sandwich ELISA as per the manufacturer protocol (BD Biosciences). In brief, capture antibodies were coated in the 96-well ELISA plate (Nunc) in respective coating buffer at 4 ℃ overnight. The plate was washed 4 times with washing buffer and blocked with the recommended blocking buffer for 1 h at room temperature. After incubation, plates were washed 4 times, added with sample and standard, and further incubated for another 2 h. Plates were then washed 4 times, added with detection antibody in combination of HRP for 1 h, and finally again washed 5 times. HRP substrate (TMB) was added and allowed to develop observable colour, and the reaction was stopped by adding 2 N H2SO4, and absorbance was recorded at 450 nm with 570 nm correction.
# [9] = tested on: MCF-7; experiment: MTT cell viability assay MCF-7; format: cell-based, human; details: Homo sapiens, MCF7, 48 h
# Method: as §1
compound,measurement,setting,value
Fc1ccc(-c2cnc3[nH]cc(-c4ccnc(NC5CC5)n4)c3c2)cc1 [MJ04],IC50,[1],2.77 µM
same,IC50,[2],> 10 µM
same,mortality and clinical signs of toxicity,"[3]; 2000 mg/kg body weight, single dermal dose, 14 days",no mortality and clinical signs of toxicity
same,LD50 at 14 days,"[3]; Wistar, rat, in vivo, topical or ocular",> 2000 mg/kg
same,IC50,[4],> 10 µM
same,length of hair shafts,[5],significantly increased the length of hair shafts
same,IC50,[6]; 1mM ATP,0.0285 µM
same,Fold of selectivity vs. JAK3,[6]; JAK 3,1
same,IC50,[6]; Km ATP (2.5 µM),0.00203 µM
same,inhibitory activity against JAK3 in kinase assays and in MTT assays,[6]; structure-activity statement,significant inhibitory activity
same,IC50,[7]; Km ATP,3.67 µM
same,Fold of selectivity vs. JAK3,[7]; PI-3-K γ,1806
same,"level of proinflammatory cytokines TNF-α, IL1-β and IL-6",[8],dampens the level of proinflammatory cytokines
same,IC50,[9],4.47 µM

# — publication PMC11025159 (Journal of Translational Medicine, 2024)
